We go through three molecules from patent publication US7557112B2, “Aromatic-ring-fused pyrimidine derivative” (Astellas Pharma Inc., priority 2004, dated 2009).

The test system of one test is MIN6B1 cell. As to the kind of experiment: Assay for promoting activity on insulin secretion. The conditions noted are these: 10 μM test compound, KRB-HEPES with 16.8 mM glucose, 37° C., 22 minutes; relative to DMSO = 100%. Format: cell-based, mouse. As to the method:
(1) Assay for Promoting Activity on Insulin Secretion
In this assay, promoting activities on insulin secretion of the test compounds were studied using MIN6B1 cell, which was a strain of mouse pancreatic β-cells, and glibenclamide, which was a commercially available insulin secretagogue, as a reference compound. The assay procedure is given below.
MIN6B1 cells were seeded on a 48-well plate at a concentration of 1×10^5 cells/well (0.25 ml) (The medium was prepared by adding FCS (fetal calf serum) to DMEM (Dulbecco's Modified Eagle Medium) containing 25 mM glucose such that the FCS concentration became 10%). After two days, the medium was suctioned by an aspirator, each well washed four times with 0.2 ml of KRE-HEPES buffer [Kregs-Ringer-bicarbonate-N-2-hydroxyethylpiperazine-N′-2-ethanesulfonic acid; 130 mM NaCl, 4.7 mM KCl, 1.2 mM KH2PO4, 1.2 mM MgCl2.6H2O, 0.25 mM CaCl2.2H2O, 2.5 mM NaHCO3, 0.5% BSA, and 10 mM N-2-hydroxyethylpiperazine-N′-2-ethanesulfonic acid (pH 7.4)] containing 2.8 mM glucose warmed to 37° C., 0.2 ml of said buffer was again added, and the cells were incubated at 37° C. for 30 to 60 minutes. […] The samples were pipetted and diluted by 25 to 51 times, and the insulin concentrations were analyzed using an insulin assay kit (Rat Insulin [^125I] Biotrak Assay System with Magnetic Separation; Amersham BioScience K.K.). […]

A further test has as its system ICR mice. As to the kind of experiment: Oral glucose tolerance test on normal mouse. Format: in vivo. The note with it: at 30 minutes after glucose loading, relative to control group. The protocol: (2) Oral Glucose Tolerance Test on Normal Mouse
In this assay, preventive activities of test compounds against hyperglycemia following glucose loading were examined using normal mice and nateglinide, a commercially available oral anti-hyperglycemic agent, as a reference compound. The assay procedure is given below.
ICR mice (male, 6 weeks old) that had been preliminary bred for one week were fasted for 18 to 20 hours to use as test animals. Each test compound was dissolved in 0.5% methylcellulose solution and orally administered at 3 mg/kg (10 mg/kg for nateglinide) before glucose loading. Timing to administer the test compound was selected to be optimal for each test compound, which was 10 minutes before glucose loading for the compounds of the present invention or 30 minutes before glucose loading for nateglinide, which was a reference compound. The hypoglycemic rate (%) at 30 minutes after glucose loading was measured relative to the control group.

In the case of `COc1ccc(Cl)cc1C(=O)NCCc1ccc(S(=O)(=O)NC(=O)NC2CCCCC2)cc1` [Glibenclamide, glibenclamide], the “Promotion activity on insulin secretion, %” value with MIN6B1 cell was found to be 122%.
Consider `CC(C)[C@H]1CC[C@H](C(=O)N[C@H](Cc2ccccc2)C(=O)O)CC1` [Nateglinide, nateglinide], for which, in the test on ICR mice (10 mg/kg orally, 30 minutes before glucose loading), the “Hypoglycemic rate, %” value came out at 26%.
For `Fc1cc(-c2nc(N3CCSC3)c3sccc3n2)c(F)cc1Cl` [Example 99], the “Hypoglycemic rate, %” value in the test on ICR mice (3 mg/kg orally, 10 minutes before glucose loading) worked out at 36%.
